Like-named read-outs stand apart in the source and are kept apart here.

In assay [1] the target is T1, Human GGT1 (Homo sapiens, UniProt P19440).
T1 construct: lacking the transmembrane domain; made in house; host or cells: Pichia pastoris
Nature of the assay: Initial rate studies with D-GpNA and L-GpNA, with or without acceptor GlyGly. The class given is biochemical. Particulars: for second order rate constant: rounded in discussion; for fold increase of Vmax in the presence of GlyGly: plus vs minus GlyGly. How it is done:
Transpeptidation Reaction: The same assay buffer was used for both the hydrolysis reaction and the transpeptidation reaction. The transpeptidation reaction included 40 mM glycylglycine (glygly, Sigma, St. Louis, Mo.) as the acceptor. The concentration of the substrate for the transpeptidation reaction, L-GpNA (Sigma) was varied from 0.25 mM to 3 mM. The concentration of L-GpNA was 3 mM for experiments in which the concentration of glygly was varied. To initiate the transpeptidation reaction, 4 mU GGT were added.
1. […] 2, which describes a ping pong kinetic mechanism. […] 3 and 4. […] 5 (25).
In eq. […] Data for noncompetitive inhibition were fitted to eq. 6. […] 6 [25].
Initial Rate Studies with D-GpNA and L-GpNA: In this study, the inhibition of both the GGT hydrolysis and transpeptidation reactions by OU749 and a new series of thiadiazol sulfonamide analogs was studied. The hydrolysis and transpeptidation reactions were analyzed separately by using different stereo-isomers of the γ-glutamyl-p-nitroanilide (GpNA) substrate. The kinetics of both reactions were first characterized in the absence of inhibitors. Cleavage of the γ-glutamyl bond of either D-GpNA or L-GpNA releases p-nitroanaline, which has an OD405 of 7,680 M^−1 cm^−1, allowing for the reactions to be monitored continuously with high sensitivity. The D-glutamyl isomer of GpNA was used as the substrate for the hydrolysis reaction, in which water serves as the acceptor. The L-glutamyl isomer of GpNA, with glycylglycine (GlyGly) as an acceptor, was used for the transpeptidation reaction. L-GpNA can serve as both a substrate and a low affinity acceptor, while D-GpNA is unable to serve as an acceptor (18, 21, 26). Therefore, in the absence of an added acceptor GGT exclusively catalyzes a hydrolysis reaction with D-GpNA as the substrate. When L-GpNA is used as a substrate, the GGT reaction is a mixture of both the hydrolysis and transpeptidation reactions. Under these conditions, the rate of the reaction is the sum of hydrolysis and transpeptidation reactions, with the hydrolysis reaction contributing more at low L-GpNA concentrations and transpeptidation dominating at saturating substrate concentrations. […] However, the maximum rate (Vmax) obtained with L-GpNA was approximately 3-times faster than that measured with D-GpNA, and the KGpNA for L-GpNA was 5-times higher than that measured for D-GpNA. This is at least partially due to the ability of L-GpNA to serve as an acceptor, resulting in a transpeptidation reaction, which is faster than the hydrolysis reaction. Therefore, to study the hydrolysis reaction in isolation, D-GpNA was used as the substrate without any added acceptor.

For assay [2], the target named is T2, hGGT (Homo sapiens, UniProt P19440).
T2 construct: lacking the transmembrane domain; made in house; host or cells: Pichia pastoris
T2 sequence (P19440 381-569 limits assumed): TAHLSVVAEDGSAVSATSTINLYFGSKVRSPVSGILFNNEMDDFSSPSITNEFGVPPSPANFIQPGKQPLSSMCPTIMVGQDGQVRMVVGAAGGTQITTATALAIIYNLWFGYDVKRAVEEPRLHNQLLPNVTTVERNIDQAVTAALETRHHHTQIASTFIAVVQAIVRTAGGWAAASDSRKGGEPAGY
T2 sequence (P19440 27-380 limits assumed): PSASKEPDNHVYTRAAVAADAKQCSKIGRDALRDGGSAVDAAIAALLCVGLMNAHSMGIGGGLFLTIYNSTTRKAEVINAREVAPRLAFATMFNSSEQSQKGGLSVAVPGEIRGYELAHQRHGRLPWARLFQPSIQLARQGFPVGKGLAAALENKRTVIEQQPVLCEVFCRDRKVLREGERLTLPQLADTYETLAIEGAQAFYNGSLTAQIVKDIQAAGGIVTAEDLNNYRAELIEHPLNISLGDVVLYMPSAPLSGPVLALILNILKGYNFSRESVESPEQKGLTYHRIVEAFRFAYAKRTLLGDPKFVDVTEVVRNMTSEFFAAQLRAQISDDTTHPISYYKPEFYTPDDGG
Nature of the assay: L-Glutamate Release Assay (Hydrolysis of GSH). Particulars: for Ki: GSH hydrolysis, read-out: GSH Kii. Format: biochemical. On the procedure:
L-Glutamate Release Assay (Hydrolysis of GSH): This assay measures the production of glutamate from the hydrolysis of GSH by GGT enzyme and has been described in detail previously. The concentration of the substrate, GSH, was varied from 5 μM to 20 μM. The concentration of the inhibitors, OU749 and its analogs, were varied from 15.6 μM to 250 μM. The reaction was initiated with the addition of 10 mU hGGT. […] All compounds were also evaluated as inhibitors of glutamate dehydrogenase, the enzyme in the second half of the L-glutamate release assay. None of the compounds in this study inhibited glutamate dehydrogenase.

Assay [3] addresses T3, Human GGT1 (hGGT) (Homo sapiens, UniProt P19440). The assay can be described thus: L-GpNA Transpeptidation Assay with GlyGly as acceptor. Also noted: lacking the transmembrane domain; made in house; host or cells: Pichia pastoris. Format: biochemical. How it is done: Transpeptidation Reaction: The same assay buffer was used for both the hydrolysis reaction and the transpeptidation reaction. The transpeptidation reaction included 40 mM glycylglycine (glygly, Sigma, St. Louis, Mo.) as the acceptor. […] The concentration of L-GpNA was 3 mM for experiments in which the concentration of glygly was varied. To initiate the transpeptidation reaction, 4 mU GGT were added.
1. […] 3 and 4. […] 5 (25).
L-GpNA Transpeptidation Assay: The assay has been described previously. […] The concentration of L-GpNA was 3 mM for experiments in which the concentration of GlyGly was varied. To initiate the transpeptidation reaction, 4 mU GGT were added.

The target of assay [4] is T3, Human GGT1 (hGGT). The assay can be described thus: D-GpNA Hydrolysis Assay (release of pNA, 405 nm, pH 7.4). How it is done: Enzyme Isolation: Human GGT1 (P19440), lacking the transmembrane domain, was expressed in Pichia pastoris and isolated as previously described (14). […] One unit of GGT activity was defined as the amount of enzyme that released 1 μmol of paranitroaniline/min at 37° C. at pH 7.4 in the transpeptidation reaction.
The reaction was initiated with the addition of 19 mU GGT. The reaction was incubated at 37° C. and monitored continuously at 405 nm by a Bio-Rad model 680 microplate reader with Microplate Manager 5.2 software (Bio-Rad, Hercules, Calif.).
Data Analysis: Samples in each experiment were run in triplicate. Each inhibitor was evaluated in two or more independent experiments. Double reciprocal plots were generated to assess data quality and determine the correct rate equation for data fitting. Data were fitted using the proper rate equation and the Marquardt-Levenberg algorithm supplied with the Enzfitter program (BIOSOFT, Cambridge, UK). Kinetic parameters with standard errors were estimated using a simple weighting method.
Data adhering to Michaelis-Menten Kinetics were fitted to eq. 1. Data for initial rate patterns with D-, L-GpNA varied at different fixed levels of glygly were fitted to eq. […] Data for competitive and uncompetitive inhibition were fitted to eqs. 3 and 4. Data for the dependence of Vmax and Vmax/KD-GpNA on the concentration of activator were fitted using eq. 5 (25).
In eqs 1-6, Vmax are the initial and maximum rates, respectively, Ka and Kb are Michaelis constants for substrates A and B, respectively, and Kis and Kii are slope and intercept inhibition constants. In eq. 5, a is the value of Vmax or Vmax/KD-GpNA at zero activator/inhibitor, KID is the activation or inhibition constant, and KIN is a constant that causes the parameter to go to a constant value at infinite concentrations of X, the activator/inhibitor. The product a(KID/KIN) is the value of Vmax or Vmax/KD-GpNA at infinite activator/inhibitor (25). Data for noncompetitive inhibition were fitted to eq. 6. Data for the dependence of Vmax and Vmax/KD-GpNA on the concentration of activator were fitted using […].
Enzyme Isolation: hGGT (P19440), lacking the transmembrane domain, was expressed in Pichia pastoris and isolated as previously described. […] One unit of GGT activity was defined as the amount of enzyme that released 1 μmol of paranitroaniline/min at 37° C. at pH 7.4 in the transpeptidation reaction with L-GpNA.
D-GpNA Hydrolysis Assay: The assay was carried out as previously described. […] The reaction was initiated with the addition of 19 mU GGT as determined by the L-GpNA transpeptidation assay. The reaction was incubated at 37° C. and monitored continuously at 405 nm.

Setting [5] is: GlyGly varied, 3 mM L-GpNA, Table 2, read-out: Transpeptidation GlyGly Kis.
Setting [6] is: L-GpNA varied, 40 mM GlyGly, Table 2, read-out: Transpeptidation L-GpNA Kii.

T1 sequence (P19440 381-569 limits assumed): as the sequence (P19440 381-569 limits assumed) above
T1 sequence (P19440 27-380 limits assumed): as the sequence (P19440 27-380 limits assumed) above
T3 sequence (P19440 381-569 limits assumed): as the sequence (P19440 381-569 limits assumed) above
T3 sequence (P19440 27-380 limits assumed): as the sequence (P19440 27-380 limits assumed) above

Regarding `N[C@@H](CCC(=O)Nc1ccc([N+](=O)[O-])cc1)C(=O)O` [L-GpNA, L-gamma-glutamyl para-nitroanilide], in assay [1] (minus acceptor), the “KGpNA relative to D-GpNA” value is 5 times, the V is listed as 6.5 ± 0.2 mM/min/nM, the V/KGpNA is 1.3e+08 ± 3.3e+06 M⁻¹ s⁻¹ and the “second order rate constant” value worked out at 1.3e+08 M⁻¹ s⁻¹. In addition, in assay [1] (plus acceptor GlyGly), the KGlyGly amounted to 9.9 ± 0.9 mM, the V amounted to 141 ± 11 mM/min/nM, the V/KGlyGly came out at 2.33e+08 ± 1.7e+07 M⁻¹ s⁻¹ and the V/KGpNA is 1.95e+09 ± 1.5e+08 M⁻¹ s⁻¹. The “fold increase of Vmax in the presence of GlyGly” value in assay [1] worked out at 22 fold.

`COc1ccc(Cc2nnc(NS(=O)(=O)c3ccc4ccccc4c3)s2)cc1` [Compound 30]: the Ki was found to be 206 ± 37 µM in assay [2] (Table 6); 143 ± 20 µM in assay [3] (Table 6, read-out: GlyGly with L-GpNA Kis); 364 ± 43 µM in assay [3] (Table 6, read-out: L-GpNA with GlyGly Kii); 415 ± 50 µM in assay [4]. Further, the “fold less potent than Compound 6 in inhibiting catabolism of GSH” value in assay [2] (relative to Compound 6) turned out to be 2.1 fold.

In the case of `N[C@@H](CCC(=O)N[C@@H](CS)C(=O)NCC(=O)O)C(=O)O` [GSH, glutathione, reference compound], the Ki came to 3000 ± 500 µM in assay [3] (in the presence of 3 mM L-GpNA, read-out: Kii of GSH vs GlyGly); 800 ± 100 µM in assay [3] (in the presence of 3 mM L-GpNA, read-out: Kis of GSH vs GlyGly); 1700 ± 20 µM in assay [3] (in the presence of 40 mM GlyGly, read-out: Kii of GSH vs L-GpNA); 1400 ± 10 µM in assay [3] (in the presence of 40 mM GlyGly, read-out: Kis of GSH vs L-GpNA); 10 ± 1.2 µM in assay [4]; 73 ± 6 µM in assay [1] (absence of GlyGly, read-out: Kis of GSH vs L-GpNA).

As to `N[C@H](CCC(=O)Nc1ccc([N+](=O)[O-])cc1)C(=O)O` [D-GpNA, D-gamma-glutamyl para-nitroanalide], in assay [1] (minus acceptor), the V came out at 2.1 ± 0.2 mM/min/nM, the V/KGpNA was 2.2e+08 ± 1.7e+06 M⁻¹ s⁻¹ and the “second order rate constant” value came to 2.17e+08 M⁻¹ s⁻¹. For the same compound, in assay [1] (plus acceptor GlyGly), the KGlyGly amounted to 7.0 ± 0.3 mM, the V was 53 ± 11 mM/min/nM, the V/KGlyGly amounted to 1.27e+08 ± 2.5e+07 M⁻¹ s⁻¹ and the V/KGpNA turned out to be 2.12e+08 ± 4.17e+07 M⁻¹ s⁻¹. For the same compound, in assay [1], the “fold increase of Vmax in the presence of GlyGly” value worked out at 25 fold.

In the case of `COc1ccc(Cc2nnc(NS(=O)(=O)c3ccc(Cl)cc3Cl)s2)cc1` [Compound 4], the Ki in assay [2] (Table 6) was found to be 950 ± 242 µM; in assay [3] (setting [5]), 3.7 ± 1 µM; in assay [3] (setting [6]) it was 15.7 ± 0.7 µM; in assay [4], 75.6 ± 7.2 µM.

For the compound `COc1ccc(Cc2nnc(NS(=O)(=O)c3ccc(C)cc3)s2)cc1` [Compound 2], the Ki in assay [2] (Table 4) was 506 ± 75 µM; in assay [3] (setting [5]) it was 10 ± 0.4 µM; in assay [3] (setting [6]) it was 22.7 ± 0.5 µM; in assay [4], 73.3 ± 4 µM. Moreover, in assay [2] (relative to OU749), the “fold less potent than OU749 in inhibiting GSH hydrolysis” value was determined as 1.3 fold.

With `Nc1ccc(S(=O)(=O)Nc2nnc(Cc3ccc(F)cc3)s2)cc1` [Compound 26], the Ki in assay [2] (Table 5) amounted to 355 ± 16 µM; in assay [3] (Table 5, read-out: GlyGly with L-GpNA Kis), 47 ± 7 µM; in assay [3] (Table 5, read-out: L-GpNA with GlyGly Kii), 58 ± 4 µM; in assay [4], 24 ± 2 µM.

The values above are taken from patent US9540337B2, “Gamma-glutamyl transpeptidase inhibitors and methods of use” (The Board of Regents of the University of Oklahoma, priority 2012, dated 2017).
